Source: ChEMBL document CHEMBL3885861, “Open TG-GATES”

Species on record: Rattus norvegicus
Experiment: Open TG-GATES - Regimen: Single
Type: toxicity, organism-based, Sprague-Dawley
Design: regimen Single, gender Male, age 6 weeks
Conditions: in vivo, iv, route intravenous injection; for Eos / Fbg / Ht / Lym / MCH / MCHC / MCV / Mono / PT / Plat / RBC / Ret / Bas / Hb / Neu: tissue Blood; for KIDNEY_L / KIDNEY_R / KIDNEY_TOTAL: tissue Kidney; for LIVER: tissue Liver; for ALP / ALT / AST / CRE / DBIL / GLC / K / Na / RALB / TBIL / TC / TG / TP / gamma-GTP / LDH: tissue Plasma
[1] = 3 mg/kg, 3 h, dose level Middle
[2] = 3 mg/kg, 6 h, dose level Middle
[3] = 3 mg/kg, 9 h, dose level Middle
[4] = 3 mg/kg, 24 h, dose level Middle

COc1cccc2c1C(=O)c1c(O)c3c(c(O)c1C2=O)C[C@@](O)(C(=O)CO)C[C@@H]3O[C@H]1C[C@H](N)[C@H](O)[C@H](C)O1 [DOXORUBICIN]
Eos [1]: 0.6% | Fbg [1]: 260.4 mg/dL | Ht [1]: 38% | Lym [1]: 78.6% | MCH [1]: 21.6 pg | MCHC [1]: 34.7% | MCV [1]: 62.4 fL | Mono [1]: 3.8% | PT [1]: 16.2 s | Plat [1]: 113.3 x10_4/uL | RBC [1]: 609.6 x10_4/ul | Ret [1]: 6.7% | KIDNEY_L [1]: 0.9 g | KIDNEY_R [1]: 0.9 g | KIDNEY_TOTAL [1]: 1.8 g | LIVER [1]: 9.4 g | ALP [1]: 1266.2 IU/L | ALT [1]: 43.2 IU/L | AST [1]: 80.2 IU/L | CRE [1]: 0.2 mg/dL | DBIL [1]: 0.002 mg/dL | GLC [1]: 174.2 mg/dL | K [1]: 4.1 meq/L | Na [1]: 141.2 meq/L | RALB [1]: 3 g/dL | TBIL [1]: 0.022 mg/dL | TC [1]: 65.6 mg/dL | TG [1]: 99.4 mg/dL | TP [1]: 5.1 g/dL | gamma-GTP [1]: 1 IU/L | TERMINAL_BW [2]: 208.1 g | Bas [2]: 0% | Eos [2]: 0.8% | Fbg [2]: 294 mg/dL | Ht [2]: 37.7% | Lym [2]: 79% | MCH [2]: 21.7 pg | MCHC [2]: 34.3% | MCV [2]: 63.3 fL | Mono [2]: 4.2% | PT [2]: 16 s | Plat [2]: 130.3 x10_4/uL | RBC [2]: 595.4 x10_4/ul | Ret [2]: 7% | KIDNEY_L [2]: 0.9 g | KIDNEY_R [2]: 0.9 g | KIDNEY_TOTAL [2]: 1.8 g | LIVER [2]: 8.4 g | ALP [2]: 1404.2 IU/L | AST [2]: 77.2 IU/L | CRE [2]: 0.1 mg/dL | DBIL [2]: 0.002 mg/dL | GLC [2]: 177 mg/dL | K [2]: 4 meq/L | LDH [2]: 128.2 IU/L | Na [2]: 140.6 meq/L | RALB [2]: 2.9 g/dL | TBIL [2]: 0.032 mg/dL | TC [2]: 73.2 mg/dL | TG [2]: 59.6 mg/dL | TP [2]: 5.1 g/dL | gamma-GTP [2]: 1.8 IU/L | TERMINAL_BW [3]: 210 g | Bas [3]: 0% | Eos [3]: 0.6% | Fbg [3]: 280.6 mg/dL | Hb [3]: 13 g/dL | Ht [3]: 38.2% | Lym [3]: 76% | MCH [3]: 21.1 pg | MCHC [3]: 34.2% | MCV [3]: 61.8 fL | Mono [3]: 4.2% | Neu [3]: 18% | PT [3]: 15.8 s | Plat [3]: 117 x10_4/uL | RBC [3]: 617.6 x10_4/ul | Ret [3]: 6.9% | KIDNEY_L [3]: 0.9 g | KIDNEY_R [3]: 0.9 g | KIDNEY_TOTAL [3]: 1.8 g | LIVER [3]: 8.1 g | ALP [3]: 1233.4 IU/L | ALT [3]: 33.2 IU/L | AST [3]: 69.2 IU/L | CRE [3]: 0.1 mg/dL | DBIL [3]: 0 mg/dL | GLC [3]: 186.8 mg/dL | K [3]: 4.3 meq/L | Na [3]: 140.6 meq/L | RALB [3]: 2.8 g/dL | TBIL [3]: 0.018 mg/dL | TC [3]: 71 mg/dL | TG [3]: 70.2 mg/dL | TP [3]: 5.1 g/dL | gamma-GTP [3]: 1.2 IU/L | TERMINAL_BW [4]: 215.4 g | Bas [4]: 0% | Eos [4]: 0.2% | Fbg [4]: 277.8 mg/dL | Hb [4]: 13.4 g/dL | Ht [4]: 37.4% | Lym [4]: 80.8% | MCH [4]: 21.6 pg | MCHC [4]: 35.7% | MCV [4]: 60.4 fL | Mono [4]: 4% | Neu [4]: 13.2% | PT [4]: 16.6 s | Plat [4]: 118.9 x10_4/uL | RBC [4]: 620 x10_4/ul | Ret [4]: 4.5% | KIDNEY_L [4]: 0.9 g | KIDNEY_R [4]: 0.9 g | KIDNEY_TOTAL [4]: 1.9 g | ALP [4]: 1504.4 IU/L | AST [4]: 68.2 IU/L | CRE [4]: 0.2 mg/dL | DBIL [4]: 0.002 mg/dL | GLC [4]: 191.4 mg/dL | K [4]: 4.5 meq/L | LDH [4]: 124.6 IU/L | Na [4]: 143 meq/L | RALB [4]: 3 g/dL | TBIL [4]: 0.018 mg/dL | TC [4]: 75 mg/dL | TG [4]: 88.6 mg/dL | TP [4]: 5.2 g/dL | gamma-GTP [4]: 1 IU/L | TERMINAL_BW (10 mg/kg, 3 h, dose level High): 211.4 g | Bas (10 mg/kg, 3 h, dose level High): 0%
